In US11147272B2, “Pyridone compounds and agricultural and horticultural fungicides comprising the same as active ingredients” (MITSUI CHEMICALS AGRO, INC., priority 2017, dated 2021):

How the values were obtained:
Plasmopara viticola = test: Test Example G: Downy mildew on vine; details: for Test G control value: 7 to 10 days after inoculation; for Test G control value class: Downy mildew on vine (Neomuscat), 2.5 ml/pot, assessed 7 to 10 days after inoculation
Phytophthora infestans = test: whole plant or invertebrate; format: in vivo; details: for Test F control value class: class of control value
Magnaporthe grisea = test: whole plant or invertebrate; format: in vivo; details: for Test A control value class: class of control value
[1] = tested on: Blumeria graminis f. sp. hordei; test: Test Example D: Powdery mildew on barley; details: for Test D control value class: class of control value
Alternaia brassicicola = test: Test Example C: Alternaria sooty spot on cabbage; format: in vivo; details: for Test C control value class: class of control value
Description: Seeds of a test plant (cabbage variety: Shikidori) were planted and cultivated until the cotyledons extended.
<Control Value> Control value=100{1−(n/3)}

Puccinia recondita = test: Test Example E: Brown rust on wheat; format: in vivo; details: for Test E control value class: class of control value
[2] = tested on: Colletotrichum orbiculare; test: Test Example H: Anthracnose on cucumber; details: for Test H control value: 6 to 10 days after inoculation; for Test H control value class: Anthracnose on cucumber (Sagami Hanjiro), 2.5 ml/pot, assessed 6 to 10 days after inoculation
Botrytis cinerea = test: Test Example B: Gray mold on tomato; details: for Test B control value class: class of control value
[3] = 250 ppm drug solution sprayed (2.5 ml/pot), grape Neomuscat
[4] = 250 ppm drug solution sprayed on test plant
[5] = 250 ppm drug solution sprayed (2.5 ml/pot), cucumber Sagami Hanjiro
[6] = Downy mildew on vine, 250 ppm spray
[7] = Late blight on tomato, control value class
[8] = Blast on rice, control value class
[9] = Powdery mildew on barley, control value class
[10] = Alternaria sooty spot on cabbage, control value class
[11] = Brown rust on wheat, control value class
[12] = Anthracnose on cucumber, 250 ppm spray
[13] = Gray mold on tomato, control value class
[14] = Alternaria sooty spot on cabbage

Structure (SMILES)	Test G control value (Plasmopara viticola; [6])	Test F control value (Phytophthora infestans; [7])	Test A control value (Magnaporthe grisea; [8])	Test D control value [1, 9]	Test C control value (Alternaia brassicicola; [10])	Test E control value (Puccinia recondita; [11])	Test H control value [2, 12]	Test B control value (Botrytis cinerea; [13])	Test G control value class (Plasmopara viticola; 250 ppm spray)	Test F control value class (Phytophthora infestans; Late blight on tomato)	Test A control value class (Magnaporthe grisea; Blast on rice)	Test D control value class ([1]; Powdery mildew on barley)	Test C control value class (Alternaia brassicicola; [14])	Test E control value class (Puccinia recondita; Brown rust on wheat)	Test H control value class ([2]; 250 ppm spray)	Test B control value class (Botrytis cinerea; Gray mold on tomato)	further results
CC(C)C(C)(O)c1cc(Cl)c(=O)n(C)c1-c1c(F)cc(F)cc1F (centres unmarked) [compound 450]	–	–	–	–	–	–	–	–	–	–	–	–	–	–	–	–	Test G control value (Plasmopara viticola; [3]): H (more than 50% control value); Test F control value (Phytophthora infestans; [4]): H (more than 50% control value); Test A control value (Magnaporthe grisea; [4]): H (more than 50% control value); Test D control value [1, 4]: H (more than 50% control value); Test C control value (Alternaia brassicicola; [4]): H (more than 50% control value); Test E control value (Puccinia recondita; [4]): H (more than 50% control value); Test H control value [2, 5]: H (more than 50% control value); Test B control value (Botrytis cinerea; [4]): H (more than 50% control value)
CCc1cc(Cl)c(=O)n(CC)c1-c1ccc(F)cc1Br [compound 342]	L (50% or less control value)	L (50% or less control value)	H (more than 50% control value)	H (more than 50% control value)	H (more than 50% control value)	H (more than 50% control value)	H (more than 50% control value)	H (more than 50% control value)	–	–	–	–	–	–	–	–	–
CCn1c(-c2ccc(O)cc2Cl)c(CC(C)C)cc(Cl)c1=O [compound 254]	L (50% or less control value)	H (more than 50% control value)	L (50% or less control value)	L (50% or less control value)	H (more than 50% control value)	H (more than 50% control value)	H (more than 50% control value)	H (more than 50% control value)	–	–	–	–	–	–	–	–	–
CCOC(C)(c1cc(Cl)c(=O)n(CC)c1-c1c(F)cc(F)cc1F)C1CCCC1 (centres unmarked) [compound 256]	H (more than 50% control value)	L (50% or less control value)	L (50% or less control value)	H (more than 50% control value)	L (50% or less control value)	H (more than 50% control value)	L (50% or less control value)	L (50% or less control value)	–	–	–	–	–	–	–	–	–
CCn1c(-c2c(F)cccc2F)c(C(C)=O)cc(Cl)c1=O [compound 22]	–	–	–	–	–	–	–	–	H (more than 50% control value)	L (50% or less control value)	L (50% or less control value)	L (50% or less control value)	H (more than 50% control value)	H (more than 50% control value)	H (more than 50% control value)	H (more than 50% control value)	–
CCn1c(-c2c(F)cc(F)cc2F)c(C(C)(OC)C(C)C)cc(Cl)c1=O (racemic) [compound 107]	–	–	–	–	–	–	–	–	H (more than 50% control value)	L (50% or less control value)	H (more than 50% control value)	H (more than 50% control value)	H (more than 50% control value)	H (more than 50% control value)	H (more than 50% control value)	H (more than 50% control value)	–
CCCCCCCCc1cc(Cl)c(=O)n(CC)c1-c1ccc(F)cc1Cl [compound 271]	L (50% or less control value)	L (50% or less control value)	L (50% or less control value)	H (more than 50% control value)	L (50% or less control value)	L (50% or less control value)	L (50% or less control value)	L (50% or less control value)	–	–	–	–	–	–	–	–	–
CCn1c(-c2c(F)cc(F)cc2F)c(CNOC)cc(Cl)c1=O [compound 112]	–	–	–	–	–	–	–	–	L (50% or less control value)	L (50% or less control value)	L (50% or less control value)	H (more than 50% control value)	H (more than 50% control value)	H (more than 50% control value)	H (more than 50% control value)	H (more than 50% control value)	–
CCc1cc(Cl)c(=O)n(CC)c1-c1ccc(F)cc1C [compound 351]	L (50% or less control value)	L (50% or less control value)	L (50% or less control value)	H (more than 50% control value)	H (more than 50% control value)	H (more than 50% control value)	H (more than 50% control value)	H (more than 50% control value)	–	–	–	–	–	–	–	–	–
CCn1c(-c2c(F)cc(OC)cc2F)c(C(C)C)cc(Br)c1=O [compound 12]	–	–	–	–	–	–	–	–	H (more than 50% control value)	L (50% or less control value)	H (more than 50% control value)	H (more than 50% control value)	H (more than 50% control value)	H (more than 50% control value)	H (more than 50% control value)	H (more than 50% control value)	–
CCc1ccc(=O)n(CC)c1-c1ccc(F)cc1Cl [compound 185]	L (50% or less control value)	L (50% or less control value)	L (50% or less control value)	H (more than 50% control value)	H (more than 50% control value)	H (more than 50% control value)	L (50% or less control value)	H (more than 50% control value)	–	–	–	–	–	–	–	–	–
CCCc1ccc(=O)n(CC)c1-c1c(F)cc(OCC)cc1F [compound 456]	–	–	–	–	–	–	–	–	–	–	–	–	–	–	–	–	Test G control value (Plasmopara viticola; [3]): H (more than 50% control value); Test F control value (Phytophthora infestans; [4]): L (50% or less control value); Test A control value (Magnaporthe grisea; [4]): H (more than 50% control value); Test D control value [1, 4]: H (more than 50% control value); Test C control value (Alternaia brassicicola; [4]): H (more than 50% control value); Test E control value (Puccinia recondita; [4]): H (more than 50% control value); Test H control value [2, 5]: H (more than 50% control value); Test B control value (Botrytis cinerea; [4]): H (more than 50% control value)
CCn1c(-c2c(F)cc(OC)cc2F)c(CNOC)cc(Cl)c1=O [compound 114]	–	–	–	–	–	–	–	–	L (50% or less control value)	L (50% or less control value)	L (50% or less control value)	H (more than 50% control value)	H (more than 50% control value)	H (more than 50% control value)	H (more than 50% control value)	H (more than 50% control value)	–
